# Data taken from BindingDB's records for doi:10.1021/jm001024j (Uppsala University, 2001).
# Target: T1, Dimer of Gag-Pol polyprotein [489-587] (Human immunodeficiency virus 1, UniProt P12497)
# T1 construct: 489-587
# Assay: Protease Inhibition Assay
# Settings: pH 5; 30 °C
row,SMILES,Ki
1,"O=S1(=O)N(Cc2ccc(-c3cccs3)cc2)[C@H](COc2ccccc2)[C@H](O)[C@@H](O)[C@@H](COc2ccccc2)N1Cc1ccc(-c2cccs2)cc1 [(3R,4S,5S,6R)-4,5-dihydroxy-3,6-bis(phenoxymethyl)-2,7-bis({[4-(thiophen-2-yl)phenyl]methyl})-1,2,7-thiadiazepane-1,1-dione]",0.92 µM
2,CC(=O)c1cccc(CN2[C@H](COc3ccccc3)[C@H](O)[C@@H](O)[C@@H](COc3ccccc3)N(Cc3cccc(C(C)=O)c3)S2(=O)=O)c1,0.059 µM
3,"O=C(CN1[C@H](COc2ccccc2)[C@H](O)[C@@H](O)[C@@H](COc2ccccc2)N(Cc2cccc(I)c2)S1(=O)=O)Nc1nccs1 [(3R,4S,5S,6R)-3,6-Bis(phenoxymethyl)-4,5-dihydroxy-7-(3-iodobenzyl)-2-[(N-2-thiazolylcarbamoyl)methyl]-1,2,7-thiadiazepine 1,1-Dioxide]",0.51 µM
4,CC(N=O)c1cccc(CN2[C@H](COc3ccccc3)[C@H](O)[C@@H](O)[C@@H](COc3ccccc3)N(Cc3cccc(C(C)N=O)c3)S2(=O)=O)c1 (stereo not given in full),0.0034 µM
5,"COC(Cc1cccc(CN2[C@H](COc3ccccc3)[C@H](O)[C@@H](O)[C@@H](COc3ccccc3)N(Cc3cccc(CC(OC)OC)c3)S2(=O)=O)c1)OC [(3R,4S,5S,6R)-2,7-bis({[3-(2,2-dimethoxyethyl)phenyl]methyl})-4,5-dihydroxy-3,6-bis(phenoxymethyl)-1,2,7-thiadiazepane-1,1-dione]",0.54 µM
6,"O=S1(=O)N(Cc2ccccc2)[C@H](COc2ccccc2)[C@H](O)[C@@H](O)[C@@H](COc2ccccc2)N1Cc1ccc(-c2cccs2)cc1 [(3R,4S,5S,6R)-2-benzyl-4,5-dihydroxy-3,6-bis(phenoxymethyl)-7-{[4-(thiophen-2-yl)phenyl]methyl}-1,2,7-thiadiazepane-1,1-dione]",0.063 µM
7,"O=C(CN1[C@H](COc2ccccc2)[C@H](O)[C@@H](O)[C@@H](COc2ccccc2)N(Cc2ccccc2)S1(=O)=O)Nc1nccs1 [(3R,4S,5S,6R)-3,6-Bis(phenoxymethyl)-4,5-dihydroxy-7-benzyl-2-[(N-2-thiazolylcarbamoyl)methyl]-1,2,7-thiadiazepine 1,1-Dioxide]",0.35 µM
8,"O=C(CN1[C@H](COc2ccccc2)[C@H](O)[C@@H](O)[C@@H](COc2ccccc2)N(Cc2ccc(-c3cccs3)cc2)S1(=O)=O)Nc1nccs1 [2-[(3R,4S,5S,6R)-4,5-dihydroxy-1,1-dioxo-3,6-bis(phenoxymethyl)-7-{[4-(thiophen-2-yl)phenyl]methyl}-1,2,7-thiadiazepan-2-yl]-N-(1,3-thiazol-2-yl)acetamide]",1.8 µM
9,O=S1(=O)N(Cc2cccc(I)c2)[C@H](COc2ccccc2)[C@H](O)[C@@H](O)[C@@H](COc2ccccc2)N1Cc1cccc(I)c1,0.093 µM
10,COC(=O)c1ccc(CN2[C@H](COc3ccccc3)[C@H](O)[C@@H](O)[C@@H](COc3ccccc3)N(Cc3ccc(C(=O)OC)cc3)S2(=O)=O)cc1,0.084 µM
11,O=S1(=O)N(Cc2cccc(CCO)c2)[C@H](COc2ccccc2)[C@H](O)[C@@H](O)[C@@H](COc2ccccc2)N1Cc1cccc(CCO)c1,0.043 µM
12,"CNC(=O)CN1[C@H](COc2ccccc2)[C@H](O)[C@@H](O)[C@@H](COc2ccccc2)N(Cc2ccccc2)S1(=O)=O [2-[(3R,4S,5S,6R)-7-benzyl-4,5-dihydroxy-1,1-dioxo-3,6-bis(phenoxymethyl)-1,2,7-thiadiazepan-2-yl]-N-methylacetamide]",1.4 µM
13,O=S1(=O)N(Cc2ccc(CO)cc2)[C@H](COc2ccccc2)[C@H](O)[C@@H](O)[C@@H](COc2ccccc2)N1Cc1ccc(CO)cc1,0.0031 µM
14,"CN1[C@H](COc2ccccc2)[C@H](O)[C@@H](O)[C@@H](COc2ccccc2)N(C)S1(=O)=O [(3R,4S,5S,6R)-2,7-Bismethyl-3,6-bis(phenoxymethyl)-4,5-dihydroxy-1,2,7-thiadiazepine 1,1-Dioxide]",0.71 µM
15,"CNC(=O)CN1[C@H](COc2ccccc2)[C@H](O)[C@@H](O)[C@@H](COc2ccccc2)N(CC(=O)NC)S1(=O)=O [(3R,4S,5S,6R)-2,7-Bis[(N-methylcarbamoyl)methyl]-3,6-bis(phenoxymethyl)-4,5-dihydroxy-1,2,7-thiadiazepine 1,1-Dioxide]",25 µM
16,"O=C(CN1[C@H](COc2ccccc2)[C@H](O)[C@@H](O)[C@@H](COc2ccccc2)N(Cc2cccc(-c3cccs3)c2)S1(=O)=O)Nc1nccs1 [(3R,4S,5S,6R)-3,6-Bis(phenoxymethyl)-4,5-dihydroxy-2-[(N-2-thiazolylcarbamoyl)methyl]-7-[3-(2-thienyl)benzyl]-1,2,7-thiadiazepine 1,1-Dioxide]",0.14 µM
17,"O=S1(=O)N(Cc2cccc(-c3cccs3)c2)[C@H](COc2ccccc2)[C@H](O)[C@@H](O)[C@@H](COc2ccccc2)N1Cc1cccc(-c2cccs2)c1 [(3R,4S,5S,6R)-3,6-Bis(phenoxymethyl)-2,7-bis[3-(2-thienyl)benzyl]-4,5-dihydroxy-1,2,7-thiadiazepine 1,1-Dioxide]",2.2 µM
18,"CN1[C@H](COc2ccccc2)[C@H](O)[C@@H](O)[C@@H](COc2ccccc2)N(Cc2ccccc2)S1(=O)=O [(3R,4S,5S,6R)-3,6-Bis(phenoxymethyl)-4,5-dihydroxy-7-methyl-2-benzyl-1,2,7-thiadiazepine 1,1-Dioxide]",0.51 µM
19,"O=S1(=O)N(Cc2ccc(-c3cccs3)cc2)[C@H](COc2ccccc2)[C@H](O)[C@@H](O)[C@@H](COc2ccccc2)N1Cc1cccc(-c2cccs2)c1 [(3R,4S,5S,6R)-4,5-dihydroxy-3,6-bis(phenoxymethyl)-7-{[3-(thiophen-2-yl)phenyl]methyl}-2-{[4-(thiophen-2-yl)phenyl]methyl}-1,2,7-thiadiazepane-1,1-dione]",6 µM
20,"CNC(=O)c1cccc(CN2[C@H](COc3ccccc3)[C@H](O)[C@@H](O)[C@@H](COc3ccccc3)N(Cc3cccc(C(=O)NC)c3)S2(=O)=O)c1 [(3R,4S,5S,6R)-2,7-Bis[3-(N-methylcarbamoyl)benzyl]-3,6-bis(phenoxymethyl)-4,5-dihydroxy-1,2,7-thiadiazepine 1,1-Dioxide]",0.039 µM
